# Legend:
# [1] = test system: refractory eosinophilic esophagitis; conditions: systemically administered, small case series; cited from earlier work
# eotaxin-3 secretion = conditions: cells from eosinophilic esophagitis patients; cited from earlier work
# atopic dermatitis = conditions: placebo-controlled phase IIa study; cited from earlier work
# [2] = UV/Vis spectroscopy of tofacitinib content and spectrum in the polymer film; assay type: physicochemical; conditions: citrate buffer, pH 4.0 with 20% methanol
# Method: Further, the film was analyzed for the content of tofacitinib. To this end, 6 circular samples with a diameter of 1.9 cm (2.84 cm^2) were cut at random positions of the film and analyzed with a UV/Vis spectroscopy in a citrate buffer, pH 4.0 with 20% methanol. The absorption spectrum is shown in FIG. 10 in comparison to a reference sample (tofacitinib solved in citrate buffer, pH 4.0 with 20% methanol).
# eosinophilic esophagitis = conditions: person, after 3 months of treatment; cited from earlier work
# [3] = test system: refractory oral graft-versus-host disease; conditions: single case, cited from earlier work
smiles,measurement,setting,value
Sc1ncnc2nc[nH]c12 [6-mercaptopurine],efficacy in the treatment of refractory eosinophilic esophagitis,[1],efficient
NC(=O)c1cnc(NCCc2ccc(O)c(Cl)c2)nc1NCc1ccccc1 [AS1517499],eotaxin-3 secretion by epithelial cells and fibroblasts,eotaxin-3 secretion,block eotaxin-3 secretion
"C[C@@H]1CCN(C(=O)CC#N)C[C@@H]1N(C)c1ncnc2[nH]ccc12 [Tofacitinib, tofacitinib]",results of topical treatment of atopic dermatitis,atopic dermatitis,convincing results
same,stability of tofacitinib in the film (absorption spectrum versus reference sample),[2],can be stably prepared in a film
same,appearance of the esophagus,eosinophilic esophagitis,significantly improve the appearance of the esophagus
same,number of eosinophils found in esophageal biopsies,eosinophilic esophagitis,least number of eosinophils found in esophageal biopsies
Cn1cnc([N+](=O)[O-])c1Sc1ncnc2nc[nH]c12 [azathioprine],tolerability,[3]; additional topical administration,well tolerated
same,clinical benefit of additional topical administration,[3]; topically and systemically administered suspension,seemed to add some clinical benefit
same,efficacy in the treatment of refractory eosinophilic esophagitis,[1],efficient
Cc1oncc1C(=O)Nc1ccc(C(F)(F)F)cc1 [leflunomide],eotaxin-3 secretion by epithelial cells and fibroblasts,eotaxin-3 secretion,block eotaxin-3 secretion
